From PubChem BioAssay (NCI)
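Tested at 5 concentrations; 48 h exposure; 96-well plates; endpoints linearly interpolated, else capped at highest concentration. GI50: concentration for 50% inhibition of growth. TGI is the concentration that stops growth completely.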

Assays:
Test in all cases: NCI-60 cell line screen, 48 h
HOP-92 NSCLC = tested on: HOP-92 NSCLC
MDA-MB-435 = tested on: MDA-MB-435
OVCAR-4 ovarian = tested on: OVCAR-4 ovarian
NCI-H460 lung = tested on: NCI-H460 lung
BT-549 breast = tested on: BT-549 breast
HCC-2998 colon = tested on: HCC-2998 colon
HCT-116 colon = tested on: HCT-116 colon
OVCAR-5 ovarian = tested on: OVCAR-5 ovarian
SK-MEL-2 melanoma = tested on: SK-MEL-2 melanoma
CAKI-1 renal = tested on: CAKI-1 renal

SMILES | GI50 (HOP-92 NSCLC) [µM] | TGI (HOP-92 NSCLC) [µM] | GI50 (MDA-MB-435) [µM] | TGI (MDA-MB-435) [µM] | GI50 (OVCAR-4 ovarian) [µM] | TGI (OVCAR-4 ovarian) [µM] | GI50 (NCI-H460 lung) [µM] | TGI (NCI-H460 lung) [µM] | GI50 (BT-549 breast) [µM] | TGI (BT-549 breast) [µM] | GI50 (HCC-2998 colon) [µM] | TGI (HCC-2998 colon) [µM] | GI50 (HCT-116 colon) [µM] | TGI (HCT-116 colon) [µM] | GI50 (OVCAR-5 ovarian) [µM] | TGI (OVCAR-5 ovarian) [µM] | GI50 (SK-MEL-2 melanoma) [µM] | TGI (SK-MEL-2 melanoma) [µM] | TGI (CAKI-1 renal) [µM] | GI50 (CAKI-1 renal) [µM]
CC(=O)/C=C/c1ccc(OCc2ccc(Cl)cc2)cc1 | 372 | > 1000 | 228 | > 1000 | 648 | > 1000 | 529 | > 1000 | 136 | > 1000 | 473 | > 1000 | > 1000 | > 1000 | > 1000 | > 1000 | 473 | > 1000 | – | –
O=C(O)c1c(Br)c(Br)c(Br)c(Br)c1C1c2ccc(O)cc2Oc2cc(O)ccc21 | – | > 100 | – | > 100 | – | > 100 | – | > 100 | – | > 100 | – | > 100 | – | > 100 | – | > 100 | – | > 100 | > 100 | –
COC(=O)[C@H](Cc1cn(C)cn1)NC(=O)[C@H](C)NC(=O)Nc1cc(C(F)(F)F)cc(C(F)(F)F)c1 | > 10 | > 10 | > 10 | > 10 | > 10 | > 10 | > 10 | > 10 | > 10 | > 10 | > 10 | > 10 | > 10 | > 10 | > 10 | > 10 | > 10 | > 10 | > 10 | > 10
Cn1cc(C2=C(Nc3ccccc3)C(=O)NC2=O)c2ccccc21 | > 25 | > 25 | > 25 | > 25 | > 21.8 | > 25 | > 25 | > 25 | > 25 | > 25 | > 25 | > 25 | 16.4 | > 25 | > 25 | > 25 | > 25 | > 25 | > 25 | > 25
Cc1cc(O)c(C2=NN(c3ccc(S(N)(=O)=O)cc3)C(/C=C/c3ccccc3)C2)cc1Cl (stereo not drawn) | 2.36 | 8.48 | 8.87 | 24 | 3.74 | 18.9 | 4.03 | 17 | 6.12 | 21.3 | 9.89 | 30.3 | 2.4 | 14.6 | 3.18 | 14.7 | 16.8 | 58.2 | 87.7 | 15.3
CC1OC(CC(=O)O)CC2=C1C(=O)c1c(O)cccc1C2=O (stereo not drawn) | – | 0.331 | – | 0.283 | – | 0.742 | – | 3.58 | – | 0.361 | – | 1.69 | – | 0.243 | – | 2.86 | – | 1.14 | 0.334 | –
O=C(CCCN1CCC(C(O)c2ccc(F)cc2)CC1)c1ccc(F)cc1 (stereo not drawn) | – | 60.4 | – | 109 | – | 134 | – | 115 | – | 93 | – | 93.4 | – | 116 | – | 116 | – | 113 | 114 | –
COC(=O)C(C(=O)OC)C(Br)C(Br)C(Br)c1ccccc1 (stereo not drawn) | 11.8 | 25.3 | 5.66 | 20.7 | 4.33 | 17.8 | 19.9 | 37.2 | 14.4 | 27.9 | 21 | 37.8 | 2 | 3.82 | 19.9 | 37.5 | 5.92 | 19.2 | 17.7 | 4.97
CC1(C)O[C@@H]2C[C@H]3[C@@H]4C[C@H](F)C5=CC(=O)C=C[C@]5(C)[C@@]4(F)[C@@H](O)C[C@]3(C)[C@]2(C(=O)CO)O1 | – | > 100 | – | > 100 | – | > 100 | – | > 100 | – | > 100 | – | > 100 | – | > 100 | – | > 100 | – | > 100 | > 100 | –
CC(=O)OC1=CC2(OC(C)=O)CC(C)(C)C1C1C(=O)C=CC(=O)C12 (stereo not drawn) | – | > 100 | – | 53.4 | – | > 100 | – | > 100 | – | 32.3 | – | > 100 | – | > 89.4 | – | > 100 | – | > 100 | > 100 | –
COc1ccc(-c2c3c(nc4n[nH]c(-c5ccc(Cl)cc5)c24)-c2ccccc2C(=O)C3=O)cc1 | 1.18 | 3.17 | 1.54 | 3.43 | 1.7 | 15.9 | 1.52 | 3.24 | 1.41 | 2.89 | 1.73 | 3.19 | 1.01 | 2.48 | 2.15 | 4.79 | 1.56 | 3.3 | 4.38 | 1.62
COc1cc(C)c2sc3ccccc3c(=O)c2c1NCCN(C)C | 1.51 | 8.64 | 2.91 | 10.6 | 8.08 | 20.9 | 3.26 | 12.3 | 12.5 | 25.4 | 2.99 | 9.03 | 3.73 | 13.6 | 9.57 | 22.3 | 6.64 | 19.6 | 19.4 | 5.87
CC1=Nc2c([nH]c(=S)[nH]c2=O)NC(c2c(Cl)cccc2Cl)C1 (stereo not drawn) | – | 17.2 | – | 2.88 | – | 9.09 | – | 5.64 | – | 2.64 | – | 22.9 | – | 1.59 | – | 11.9 | – | 32.9 | 14.8 | –
CN1CCN(c2nc(-c3csc(-c4cccs4)n3)cc3ccccc23)CC1 | 1.44 | 3.75 | 1.73 | 3.24 | 2.18 | 4.73 | 1.78 | 3.25 | 1.82 | 3.94 | 1.72 | 3.4 | 1.76 | 3.36 | 1.66 | 3.13 | 1.47 | 3.48 | 3.01 | 1.61
CCN1C(=NCCO)NS(=O)(=O)c2ccccc21 | – | > 100 | – | > 100 | – | > 100 | – | > 100 | – | > 100 | – | > 100 | – | > 100 | – | > 100 | – | > 100 | > 100 | –
